# Results: ChEMBL document CHEMBL5365540, “Structure-activity relationship studies and biological properties evaluation of peptidic NRP-1 ligands: Investigation of N-terminal cysteine importance” (Bioorg Med Chem, 2023)
# Calls of active or inactive are those of the source. No cut-off for these calls is given here. Where a SMILES comes first, the peptide text is derived from it.
# Experiments:
# [1] = biological target: VEGFR2-VEGA (Homo sapiens) (UniProt P15692+P35968); experiment: Inhibition of human biotinylated-VEGFA165 binding to recombinant human VEGFR2 measured after 2 hrs by chemiluminescent based ELISA; assay type: protein-complex assay
# NRP2-VEGA = biological target: T1, NRP2-VEGA (Homo sapiens, UniProt O60462+P15692); experiment: Inhibition of human biotinylated-VEGFA165 binding to recombinant human NRP-2 measured after 2 hrs by chemiluminescent based ELISA; assay type: protein-complex assay
# T1 sequence (P15692 whole entry): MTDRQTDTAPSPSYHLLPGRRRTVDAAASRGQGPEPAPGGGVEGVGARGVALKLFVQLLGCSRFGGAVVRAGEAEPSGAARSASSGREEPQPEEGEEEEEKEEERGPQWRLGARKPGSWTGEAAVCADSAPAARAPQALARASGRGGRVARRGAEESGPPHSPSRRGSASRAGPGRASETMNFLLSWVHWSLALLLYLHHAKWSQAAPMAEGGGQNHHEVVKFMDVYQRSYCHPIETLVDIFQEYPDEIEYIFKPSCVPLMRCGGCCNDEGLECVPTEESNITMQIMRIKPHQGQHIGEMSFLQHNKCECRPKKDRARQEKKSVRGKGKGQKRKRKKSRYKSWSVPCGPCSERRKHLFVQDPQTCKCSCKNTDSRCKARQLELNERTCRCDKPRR
# T1 sequence (O60462 whole entry): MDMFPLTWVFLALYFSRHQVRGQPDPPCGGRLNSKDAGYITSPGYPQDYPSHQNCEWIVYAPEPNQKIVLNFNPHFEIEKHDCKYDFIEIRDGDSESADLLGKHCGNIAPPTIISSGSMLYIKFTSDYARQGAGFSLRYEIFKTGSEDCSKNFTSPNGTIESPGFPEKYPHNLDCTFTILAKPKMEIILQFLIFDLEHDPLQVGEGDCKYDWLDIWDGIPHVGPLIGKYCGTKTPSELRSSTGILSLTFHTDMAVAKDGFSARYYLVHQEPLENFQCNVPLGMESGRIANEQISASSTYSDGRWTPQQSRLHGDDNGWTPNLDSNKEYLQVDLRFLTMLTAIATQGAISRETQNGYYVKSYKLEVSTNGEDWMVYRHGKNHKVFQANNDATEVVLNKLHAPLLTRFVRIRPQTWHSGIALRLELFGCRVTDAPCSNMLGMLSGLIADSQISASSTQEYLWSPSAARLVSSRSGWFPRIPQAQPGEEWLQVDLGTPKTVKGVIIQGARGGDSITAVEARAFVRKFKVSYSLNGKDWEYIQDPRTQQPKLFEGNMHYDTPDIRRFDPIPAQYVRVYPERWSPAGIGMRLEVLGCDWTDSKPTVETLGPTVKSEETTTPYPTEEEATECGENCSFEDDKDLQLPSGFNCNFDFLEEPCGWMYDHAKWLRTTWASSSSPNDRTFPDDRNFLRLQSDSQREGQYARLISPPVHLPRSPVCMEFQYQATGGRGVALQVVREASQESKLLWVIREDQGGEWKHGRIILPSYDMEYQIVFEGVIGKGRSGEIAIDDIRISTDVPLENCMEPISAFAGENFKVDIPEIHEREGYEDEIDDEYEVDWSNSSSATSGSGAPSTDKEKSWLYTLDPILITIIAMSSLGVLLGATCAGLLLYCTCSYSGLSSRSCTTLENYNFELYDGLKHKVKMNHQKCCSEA
# MDA-MB-231 [2] = experiment: Increase in NRP-1 expression in human MDA-MB-231 cell membrane at 72 uM preincubated for 15 mins at 4 degC followed by compound washout and further incubated for 5 mins with subsequent addition of compound at 37 degC by FITC-streptavidin staining based flow cytometry analysis; assay type: functional; conditions: time 20.0 min
# Homo sapiens = species on record: Homo sapiens; experiment: Selectivity ratio of IC50 for inhibition of human biotinylated-VEGFA165 binding to recombinant human NRP-1 to IC50 for inhibition of human biotinylated-VEGFA165 binding to recombinant human NRP-2
# MDA-MB-231 [3] = experiment: Increase in NRP-1 expression in human MDA-MB-231 cell membrane at 72 uM preincubated for 15 mins at 4 degC followed by compound washout and further incubated for 60 mins with subsequent addition of compound at 37 degC by FITC-streptavidin staining based flow cytometry analysis; assay type: functional; conditions: time 75.0 min
# [4] = Half-life in human serum by LC-SWATH-MS analysis; assay type: ADME, cell-free
# [5] = biological target: VEGFR1-VEGA (Homo sapiens) (UniProt P15692+P17948); experiment: Inhibition of human biotinylated-VEGFA165 binding to recombinant human VEGFR1 measured after 2 hrs by chemiluminescent based ELISA; assay type: protein-complex assay
# MDA-MB-231 [6] = experiment: Increase in NRP-1 expression in human MDA-MB-231 cell membrane at 7.2 uM preincubated for 15 mins at 4 degC followed by compound washout and further incubated for 60 mins with subsequent addition of compound at 37 degC by FITC-streptavidin staining based flow cytometry analysis; assay type: functional; conditions: time 75.0 min
# VEGA-NRP1 = VEGA-NRP1 (Homo sapiens, UniProt O14786); experiment: Inhibition of human biotinylated-VEGFA165 binding to recombinant human NRP-1 measured after 2 hrs by chemiluminescent based ELISA; assay type: protein assay
# Chain of VEGA-NRP1 (O14786 whole entry, one chain of several): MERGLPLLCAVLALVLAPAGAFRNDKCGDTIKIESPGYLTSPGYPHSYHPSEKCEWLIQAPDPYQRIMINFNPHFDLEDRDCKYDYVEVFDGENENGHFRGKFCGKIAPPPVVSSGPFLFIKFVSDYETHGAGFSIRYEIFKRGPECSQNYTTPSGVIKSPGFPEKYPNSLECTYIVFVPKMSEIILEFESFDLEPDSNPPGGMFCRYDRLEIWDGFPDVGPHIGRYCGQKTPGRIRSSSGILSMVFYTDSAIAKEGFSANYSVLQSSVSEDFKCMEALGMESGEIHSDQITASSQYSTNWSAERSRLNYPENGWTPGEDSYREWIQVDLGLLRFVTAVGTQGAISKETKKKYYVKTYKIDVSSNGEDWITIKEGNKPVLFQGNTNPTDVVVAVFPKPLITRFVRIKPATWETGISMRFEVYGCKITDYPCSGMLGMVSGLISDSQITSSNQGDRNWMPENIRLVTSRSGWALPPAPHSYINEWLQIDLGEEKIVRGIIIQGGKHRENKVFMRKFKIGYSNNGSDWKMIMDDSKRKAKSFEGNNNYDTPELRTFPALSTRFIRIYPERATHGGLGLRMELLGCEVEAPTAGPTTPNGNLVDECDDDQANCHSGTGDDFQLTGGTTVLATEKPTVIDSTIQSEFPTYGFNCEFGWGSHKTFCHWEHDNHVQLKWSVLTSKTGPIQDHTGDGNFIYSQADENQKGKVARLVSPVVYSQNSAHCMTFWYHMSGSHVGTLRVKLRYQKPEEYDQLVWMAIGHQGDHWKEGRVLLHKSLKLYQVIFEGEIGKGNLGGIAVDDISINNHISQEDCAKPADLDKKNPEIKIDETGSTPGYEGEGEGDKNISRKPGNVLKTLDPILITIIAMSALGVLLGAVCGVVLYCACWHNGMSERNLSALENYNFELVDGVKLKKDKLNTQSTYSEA
# [7] = Stability in human serum assessed as compound degradation measured upto 96 hrs by LC-SWATH-MS analysis; assay type: ADME, cell-free
# [8] = Stability in human serum assessed as parent compound remaining measured after 12 hrs by LC-SWATH-MS analysis; assay type: ADME, cell-free; conditions: read-out: Stability
# [9] = Stability in human serum assessed as parent compound remaining measured after 24 hrs by LC-SWATH-MS analysis; assay type: ADME, cell-free; conditions: read-out: Stability
# [10] = Stability in human serum assessed as parent compound remaining measured after 8 hrs by LC-SWATH-MS analysis; assay type: ADME, cell-free; conditions: read-out: Stability
SMILES,inhibition [1],IC50 (NRP2-VEGA; read-out: IC50) [nM],IC50 (NRP2-VEGA; read-out: pIC50 (converted)) [nM],Activity (MDA-MB-231 [2]),Ratio IC50 (Homo sapiens),Activity (MDA-MB-231 [3]),half-life [4] [h],inhibition [5],Activity (MDA-MB-231 [6]),IC50 (VEGA-NRP1; read-out: IC50) [nM],IC50 (VEGA-NRP1; read-out: pIC50 (converted)) [nM],Stability [7],remaining at 12 h [8] [%],remaining at 24 h [9] [%],remaining at 8 h [10] [%]
"N=C(N)NCCCC[C@H](N)C(=O)NCCCC[C@H](NC(=O)[C@@H](N)CS)C(=O)N[C@@H](CCN)C(=O)N1C2CCCCC2C[C@H]1C(=O)N[C@@H](CCCNC(=N)N)C(=O)O (some centres not stated) (HELM PEPTIDE1{C.K.[Dab].[O=C([C@@H]1CC2CCCCC2N1[*:1])[*:2]].R}|PEPTIDE2{[N=C(N)NCCCC[C@H](N)C(=O)[*:2]]}$PEPTIDE1,PEPTIDE2,2:R3-1:R2$$$V2.0)",inactive,43,475,Active,5,Active,~8,inactive,Active,39,43.1,Unstable,61,,
"N=C(N)NCCCC[C@H](N)C(=O)NCC[C@H](N)C(=O)N[C@@H](CCN)C(=O)N1C2CCCCC2C[C@H]1C(=O)N[C@@H](CCCNC(=N)N)C(=O)O (some centres not stated) (HELM PEPTIDE1{[Dab].[Dab].[O=C([C@@H]1CC2CCCCC2N1[*:1])[*:2]].R}|PEPTIDE2{[N=C(N)NCCCC[C@H](N)C(=O)[*:2]]}$PEPTIDE1,PEPTIDE2,1:R3-1:R2$$$V2.0)",,,,,,,,,,,2240,,,0,56
"N=C(N)NCCCC[C@H](NC(=O)[C@@H](N)CS)C(=O)NCCCC[C@H](N)C(=O)N[C@@H](CCN)C(=O)N1C2CCCCC2C[C@H]1C(=O)N[C@@H](CCCNC(=N)N)C(=O)O (some centres not stated) (HELM PEPTIDE1{K.[Dab].[O=C([C@@H]1CC2CCCCC2N1[*:1])[*:2]].R}|PEPTIDE2{C.[N=C(N)NCCCC[C@H](N[*:1])C(=O)[*:2]]}$PEPTIDE1,PEPTIDE2,1:R3-2:R2$$$V2.0)",inactive,9,,Active,5,Active,< 8,inactive,Active,46,,Unstable,,,47
